Assay results from patent publication US20170114030A1, “COMPOSITION WITH HIGH CONTENT OF CYCLIC DIPEPTIDE” (SUNTORY HOLDINGS LIMITED, priority 2014, published 2017).

Experiments:
NCI-H716 cells = experiment: In vitro GLP-1 secretion-accelerating action (active GLP-1 ELISA); format: cell-based; conditions: for Significant difference (p < 0.05) vs control group, amount of active GLP-1 secreted: 1 hour, Student's t-test; for Amount of active GLP-1 secreted (relative value to control group as 100), Average value: after 1 hour, group with no cyclic dipeptide = 100
Procedure: (§1) In the Test Examples below, data were represented as average value±standard error. In Test Examples 1, 2, and 3, a Student's t-test was used for a statistical test, and in other Test Examples, one-way ANOVA was carried out for dispersion analysis followed by a multiple comparison test by using a Dunnet's test. […] All of these analyses were carried out by using an SPSS for Windows release 17.0 (manufactured by SPSS Inc.).
Among the cyclic dipeptides, 92 highly water-soluble cyclic dipeptides were used in the following experiment. In each well of a Poly-L-Lysine 96-well plate, NCI-H716 cells suspended in 100 μL of a DMEM (with 10% FBS, 2 mM glutamine, and 1% antibiotics added in advance) were seeded at 0.5×10^5 cells/well, and cultured in a CO2 incubator (manufactured by ESPEC CORP.) for 48 hours. After washing with PBS(+), 100 μL of a PBS(+) solution with each cyclic dipeptide at a final concentration of 10 mM and 10 μM of Sitagliptin phosphate added therein was added to the cells. After 1 hour, the resultant solution was recovered, and the amount of active GLP-1 in the solution was measured by using the ELISA kit. In the analysis, the amount of active GLP-1 for a group with no cyclic dipeptide added was defined as 100, and relative values thereto were used.
In each Table, cyclic dipeptides for which an in vitro active GLP-1 secretion-accelerating activity was found and was not found are listed.

plasma active GLP-1 = experiment: In vivo plasma active GLP-1 level-increasing action after oral administration; set-up: species or system mice; conditions: 10 mg/kg orally; for Plasma active GLP-1 level (relative value to control group as 100), Average value: male C57/BL6J mice, blood after 30 minutes, 0.5% CMC-Na group = 100; for Significant difference (p < 0.05) vs control group, plasma active GLP-1 level: mice, 30 minutes, Student's t-test
Procedure: as §1
Among the cyclic dipeptides, cyclic dipeptides for which an in vitro GLP-1 secretion-accelerating action was found and highly lipid-soluble cyclic dipeptides were used in the following experiment. Seven-week-old male C57/BL6J mice were purchased from CLEA Japan, Inc. for use, and they were subjected to an experiment after 1 week of a habituation period. Each animal was grown in an animal room with an air conditioning system (temperature: 23.5±1.0° C., humidity: 55±10 RH %, air ventilation: 12 to 15 times/hour, illumination: from 7:00 to 19:00/day).
After the habituation period, the mice were subjected to 5.5 hours of food deprivation and 2 hours of water deprivation. Thereafter, a cyclic dipeptide dissolved or suspended in a 0.5% CMC-Na aqueous solution in 10 mg/kg was orally administered to each mouse forcibly. After 30 minutes, the blood was collected from the abdominal vena cava under anesthesia, and 1 μL of heparin sodium and 1 μL of 10 mM Sitagliptin phosphate were added to each collected blood, which was then subjected to centrifugation at 8000 rpm for 10 minutes to recover the plasma, and the plasma active GLP-1 level was measured by using the ELISA kit. In the analysis, the active GLP-1 level for a group administered with 0.5% CMC-Na aqueous solution was defined as 100, and relative values thereto were used.
In each Table, cyclic dipeptides for which an in vivo plasma active GLP-1 level-increasing action was found and was not found are listed.

[1] = Experiment 2, cyclic dipeptide 10 mM with 10 μM Sitagliptin phosphate
[2] = Experiment 4, cyclic dipeptide 10 mM with 10 μM Sitagliptin phosphate

| Structure (SMILES) | Significant difference (p < 0.05) vs control group, amount of active GLP-1 secreted (NCI-H716 cells; Experiment 1, 10 mM) | Amount of active GLP-1 secreted (relative value to control group as 100), Average value (NCI-H716 cells; Experiment 1, cyclic dipeptide 10 mM with 10 μM Sitagliptin phosphate) | Plasma active GLP-1 level (relative value to control group as 100), Average value (plasma active GLP-1; Experiment 1) | Significant difference (p < 0.05) vs control group, plasma active GLP-1 level (plasma active GLP-1; Experiment 1) | Significant difference (p < 0.05) vs control group, amount of active GLP-1 secreted (NCI-H716 cells; Experiment 2, 10 mM) | Amount of active GLP-1 secreted (relative value to control group as 100), Average value (NCI-H716 cells; [1]) | Significant difference (p < 0.05) vs control group, amount of active GLP-1 secreted (NCI-H716 cells; Experiment 4, 10 mM) | Amount of active GLP-1 secreted (relative value to control group as 100), Average value (NCI-H716 cells; [2]) | Plasma active GLP-1 level (relative value to control group as 100), Average value (plasma active GLP-1; Experiment 2) | Significant difference (p < 0.05) vs control group, plasma active GLP-1 level (plasma active GLP-1; Experiment 2) |
| --- | --- | --- | --- | --- | --- | --- | --- | --- | --- | --- |
| C[C@@H]1NC(=O)[C@H](CO)NC1=O [compound 25] | Yes | 257 | 158 | Yes |  |  |  |  |  |  |
| O=C1N[C@@H](Cc2c[nH]c3ccccc23)C(=O)N[C@H]1Cc1c[nH]cn1 [compound 60] |  |  | 129 | No | Yes | 260 |  |  |  |  |
| NCCCC[C@@H]1NC(=O)[C@H](Cc2ccccc2)NC1=O [compound 63] |  |  | 206 | Yes | Yes | 220 |  |  |  |  |
| CCC(C)C1NC(=O)C(CCC(N)=O)NC1=O (stereo not drawn) [compound 182] |  |  |  |  |  |  | Yes | 445 | 188 | Yes |
| C[C@@H]1NC(=O)C2CCCN2C1=O (stereo partly drawn) [compound 187] |  |  |  |  |  |  | Yes | 1186 | 217 | Yes |
| NC(=O)CCC1NC(=O)C(Cc2c[nH]cn2)NC1=O (stereo not drawn) [compound 191] |  |  |  |  |  |  | Yes | 743 | 247 | Yes |
| O=C(O)CC1NC(=O)C(CO)NC1=O (stereo not drawn) [compound 193] |  |  |  |  |  |  | Yes | 509 | 266 | Yes |
| CC(C)C1NC(=O)C(CCCNC(=N)N)NC1=O (stereo not drawn) [compound 194] |  |  |  |  |  |  | Yes | 498 | 237 | Yes |
| CSCCC1NC(=O)C(CCCNC(=N)N)NC1=O (stereo not drawn) [compound 199] |  |  |  |  |  |  | Yes | 652 | 217 | Yes |
